According to article PMC6832239, “The Effects of a Novel Series of KTTKS Analogues on Cytotoxicity and Proteolytic Activity” (Molecules, 2019):
Read-outs that look alike come from different tables or passages of the source. Residues, ends and D or L forms follow the SMILES beside them.

Assays:
urokinase = biological target: T1, urokinase (Homo sapiens, UniProt P00749); assay: Amidolytic activity of urokinase (chromogenic substrate pyro-Glu-Gly-Arg-pNA); type: biochemical
T1 construct: purchased Sigma (Schnelldorf, Germany)
Experimental: (§1) The determination of amidolytic activity was performed as previously described by Okada. A detailed description of the method is given below: 0.2 mL of the examined peptides (0.15 M NaCl as contro), a buffer, and 0.1 mL of enzyme solution were mixed. The final peptide concentrations were: 0.2 mM, 2 mM, and 20 mM. The mixture was incubated at 37 °C for 3 min; then the synthetic substrate solution was added in the same buffer. After 20 min of incubation, the reaction was stopped by adding 0.1 mL of 50% acetic acid and the absorbance of the released p-nitroaniline was measured at 405 nm. The mean values from three independent experiments done in duplicate are presented. A method error of 5% was adopted as statistical error. IC50 value was considered as the concentration of inhibitor that reduces absorbance by 50%, compared with absorbance measured under the same conditions without an inhibitor. IC50 was calculated mathematically by extrapolation using a linear plot. IC50 values are presented in Table 1 and Table 2, and graphically in Figure 1.
(§2) The buffers and the enzyme solutions included: • Tris buffer—0.6 mL (pH 8.8), enzyme: urokinase (50 units/mL), synthetic substrate: pyro-Glu-Gly-Arg-pNA·HCl (0.1 mL, 3 mM); • Tris buffer—0.5 mL (pH 8.4), enzyme: thrombin (1 units/mL), synthetic substrate: H-D-Phe-Pip-Arg-pNA (0.2 mL, 0.75 mM); • Tris buffer—0.5 mL (pH 7.4), enzyme: plasmin (0.4 units/mL), synthetic substrate: H-D-Val-Leu-Lys-pNA (0.2 mL, 3 mM); • Borate buffer—0.5 mL (pH 7.5), enzyme: trypsin (0.4 units/mL), synthetic substrate: Bzl-L-Arg-pNA·HCl (0.2 mL, 8 mM); • Tris buffer—0.6 mL (pH 9.0), enzyme: kallikrein (3 units/mL), synthetic substrate: H-D-Val-Leu-Arg-pNA·2HCl (0.1 mL, 75 mM); • Tris buffer—0.6 mL (pH 8.4), enzyme: t-PA ([…]), synthetic substrate: H-D-Ile-Pro-Arg-pNA (0.1 mL, 10 mM) • Tris buffer—0.6 mL (pH 9.0), enzyme: chymotrypsin (0.4 units/mL), synthetic substrate: Suc-Phe-pNA (0.2 mL, 8 mM)

[1] = Viability of fibroblast cells, MTT assay; type: cell-based, Human; details: human, primary dermal fibroblast cells
Experimental: Viability of fibroblast cells was examined with the use of the MTT assay. MTT, a yellow tetrazole, is reduced to purple formazan only in living cells. Absorbance of the coloured solution was measured by a spectrophotometer.
These studies were performed on primary dermal fibroblasts cells. The cells were maintained in DMEM supplemented with 10% fetal bovine serum (FBS), 2 mM glutamin, 50 U/mL penicillin and […] streptomycin at 37 °C in a 5% CO2 incubator. For experiments, cells cultures were plated at a density of 1 × 10^6/well in six-well culture plates (Costar, St. Louis, MO, USA) in 2 mL of growth medium. Cells reached about 80% of confluency at day 2 were used for the assays.
Toxicity of the tested substances was determined using an MTT [3-(4,5-dimethylthiazol-2-yl)-2,5-diphenyltetrazolium bromide)] assay. Palmitoyl and lipoyl peptides were dissolved in DMSO (dimethyl sulfoxide), the other peptides in DMEM, and added to the cell culture medium. Simultaneously, the same concentrations of DMSO without peptides were added to cells, serving as controls. The final peptide concentrations were: 1 μM, 10 μM, and 100 μM. After 24 h incubation, the cells cultured with the tested compounds were washed with phosphate-buffered saline (PBS) and then incubated for 4 h in 2 mL of MTT solution (5 mg/mL). After removing the medium, the cells were lysed in 200 μL of DMSO with 20 μL of Sorensen’s buffer (pH 10.5, 0.1 mol/L glycine with 0.1 mol/L NaCl). The absorbance of converted dye in living cells was measured at a wavelength of 570 nm. The mean values ± SD from three independent experiments done in duplicate are presented.

plasmin = biological target: T2, plasmin (Homo sapiens, UniProt P00747); assay: Amidolytic activity of plasmin (chromogenic substrate H-D-Val-Leu-Lys-pNA); type: biochemical
T2 construct: purchased Chromogenix (Milano, Italy)
T2 sequence (P00747 581-810 limits assumed): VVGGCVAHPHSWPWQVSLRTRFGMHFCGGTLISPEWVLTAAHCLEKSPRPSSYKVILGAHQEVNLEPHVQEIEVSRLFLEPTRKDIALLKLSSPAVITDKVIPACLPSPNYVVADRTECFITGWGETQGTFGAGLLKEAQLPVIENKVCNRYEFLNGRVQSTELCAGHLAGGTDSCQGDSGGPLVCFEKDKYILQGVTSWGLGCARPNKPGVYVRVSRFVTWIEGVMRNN
T2 sequence (P00747 97-580 partner limits assumed): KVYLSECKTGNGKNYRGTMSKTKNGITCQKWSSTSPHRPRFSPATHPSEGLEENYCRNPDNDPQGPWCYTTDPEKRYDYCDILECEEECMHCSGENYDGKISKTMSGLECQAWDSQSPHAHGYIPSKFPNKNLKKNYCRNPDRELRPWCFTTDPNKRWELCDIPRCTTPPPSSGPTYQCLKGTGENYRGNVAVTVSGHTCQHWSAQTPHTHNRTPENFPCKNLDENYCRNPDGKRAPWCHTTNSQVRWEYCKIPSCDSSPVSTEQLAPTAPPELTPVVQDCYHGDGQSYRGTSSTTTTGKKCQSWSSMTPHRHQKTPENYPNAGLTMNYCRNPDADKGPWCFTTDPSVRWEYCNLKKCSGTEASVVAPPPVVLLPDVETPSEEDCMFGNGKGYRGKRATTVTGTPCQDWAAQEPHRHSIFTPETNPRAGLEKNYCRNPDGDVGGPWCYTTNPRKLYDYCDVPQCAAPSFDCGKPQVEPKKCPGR
Experimental: as §1, §2

thrombin = biological target: T3, thrombin (Bos taurus, UniProt P00735); assay: Amidolytic activity of thrombin (chromogenic substrate H-D-Phe-Pip-Arg-pNA); type: biochemical
T3 construct: purchased Lubelska Wytwórnia Szczepionek (Lublin, Poland)
Experimental: The determination of amidolytic activity was performed as previously described by Okada. A detailed description of the method is given below: 0.2 mL of the examined peptides (0.15 M NaCl as contro), a buffer, and 0.1 mL of enzyme solution were mixed. The final peptide concentrations were: 0.2 mM, 2 mM, and 20 mM. The mixture was incubated at 37 °C for 3 min; then the synthetic substrate solution was added in the same buffer. […] The mean values from three independent experiments done in duplicate are presented. A method error of 5% was adopted as statistical error. […] IC50 was calculated mathematically by extrapolation using a linear plot.

[2] = amidolytic activity, Tris pH 8.8, 37 °C, IC50 by extrapolation using a linear plot, error 5%, read-out: IC50 Urokinase
[3] = 1 µmol/L, 24 h, MTT, ± 2, read-out: Viability of fibroblast cells
[4] = 10 µmol/L, 24 h, MTT, ± 2, read-out: Viability of fibroblast cells
[5] = 100 µmol/L, 24 h, MTT, ± 2, read-out: Viability of fibroblast cells
[6] = amidolytic activity, Tris pH 7.4, 37 °C, IC50 by extrapolation using a linear plot, error 5%, read-out: IC50 Plasmin
[7] = amidolytic activity, Tris pH 8.4, 37 °C, IC50 by extrapolation using a linear plot, error 5%, read-out: IC50 Thrombin

Compound	IC50 (urokinase; [2]) [µM]	viability at 24 h, 1 µmol/L [1, 3] [%]	viability at 24 h, 10 µmol/L [1, 4] [%]	viability at 24 h, 100 µmol/L [1, 5] [%]	IC50 (plasmin; [6]) [µM]	IC50 (thrombin; [7]) [µM]	viability at 24 h, 1 µmol/L [1] [%]	viability at 24 h, 10 µmol/L [1] [%]	viability at 24 h, 100 µmol/L [1] [%]	IC50 (thrombin) [µM]	IC50 (thrombin; converted from IC50 of Table 1, read-out: -logIC50 Thrombin (converted)) [µM]	IC50 (plasmin; amidolytic activity, palmitic peptides, read-out: IC50 plasmin (text, micromolar)) [µM]	IC50 (urokinase) [µM]	IC50 (plasmin; converted from IC50 of Table 1, read-out: -logIC50 Plasmin (converted)) [µM]
C[C@@H](O)[C@H](NC(=O)[C@H](CCCCN)NC(=O)CCCCC1CCSS1)C(=O)N[C@H](C(=O)N[C@@H](CCCCN)C(=O)N[C@@H](CO)C(N)=O)[C@@H](C)O (mixture of isomers) [Peptide 7, Lip-Lys-Thr-Thr-Lys-Ser-NH2]	15100 ± 750	97	89	87	580 ± 29	11700 ± 580	–	–	–	–	–	–	–	–
C[C@@H](O)[C@H](NC(=O)[C@H](CCCCN)NC(=O)CCCCC1CCSS1)C(=O)N[C@H](C(=O)N[C@@H](CCCNC(=N)N)C(=O)N[C@@H](CO)C(=O)O)[C@@H](C)O (mixture of isomers) [Peptide 11, Lip-Lys-Thr-Thr-Arg-Ser-OH]	–	102	105	98	240 ± 12	10900 ± 540	–	–	–	–	–	–	–	–
C[C@@H](O)[C@H](NC(=O)[C@H](CCCCN)NC(=O)CCCCC1CCSS1)C(=O)N[C@H](C(=O)N[C@@H](CCCNC(=N)N)C(=O)N[C@@H](CO)C(N)=O)[C@@H](C)O (mixture of isomers) [Peptide 15, Lip-Lys-Thr-Thr-Arg-Ser-NH2]	3470 ± 170	–	–	–	690 ± 35	–	112	122	115	4110 ± 210	–	–	–	–
C[C@@H](O)[C@H](NC(=O)[C@H](CCCNC(=N)N)NC(=O)CCCCC1CCSS1)C(=O)N[C@H](C(=O)N[C@@H](CCCNC(=N)N)C(=O)N[C@@H](CO)C(=O)O)[C@@H](C)O (mixture of isomers) [Peptide 19, Lip-Arg-Thr-Thr-Arg-Ser-OH]	–	79	81	90	1010 ± 51	1840 ± 92	–	–	–	–	–	–	–	–
C[C@@H](O)[C@H](NC(=O)[C@H](CCCNC(=N)N)NC(=O)CCCCC1CCSS1)C(=O)N[C@H](C(=O)N[C@@H](CCCNC(=N)N)C(=O)N[C@@H](CO)C(N)=O)[C@@H](C)O (mixture of isomers) [Peptide 23, Lip-Arg-Thr-Thr-Arg-Ser-NH2]	4670 ± 230	89	79	88	1890 ± 94	2360 ± 120	–	–	–	–	–	–	–	–
C[C@@H](O)[C@H](NC(=O)[C@H](CCCNC(=N)N)NC(=O)CCCCC1CCSS1)C(=O)N[C@H](C(=O)N[C@@H](CCCCN)C(=O)N[C@@H](CO)C(=O)O)[C@@H](C)O (mixture of isomers) [Peptide 27, Lip-Arg-Thr-Thr-Lys-Ser-OH]	–	105	91	80	2120 ± 110	–	–	–	–	–	4270	–	–	–
C[C@@H](O)[C@H](NC(=O)[C@H](CCCNC(=N)N)NC(=O)CCCCC1CCSS1)C(=O)N[C@H](C(=O)N[C@@H](CCCCN)C(=O)N[C@@H](CO)C(N)=O)[C@@H](C)O (mixture of isomers) [Peptide 31, Lip-Arg-Thr-Thr-Lys-Ser- NH2]	4570 ± 230	107	112	117	3230 ± 160	5590 ± 280	–	–	–	–	–	–	–	–
CCCCCCCCCCCCCCCC(=O)N[C@@H](CCCCN)C(=O)N[C@H](C(=O)N[C@H](C(=O)N[C@@H](CCCCN)C(=O)N[C@@H](CO)C(N)=O)[C@@H](C)O)[C@@H](C)O [Peptide 8, Pal-Lys-Thr-Thr-Lys-Ser-NH2] (HELM PEPTIDE1{[CCCCCCCCCCCCCCCC(=O)[*:2]].K.T.T.K.S.[am]}$$$$V2.0)	3120 ± 160	96	83	83	–	–	–	–	–	–	–	< 200	–	–
CCCCCCCCCCCCCCCC(=O)N[C@@H](CCCCN)C(=O)N[C@H](C(=O)N[C@H](C(=O)N[C@@H](CCCNC(=N)N)C(=O)N[C@@H](CO)C(=O)O)[C@@H](C)O)[C@@H](C)O [Peptide 12, Pal-Lys-Thr-Thr-Arg-Ser-OH] (HELM PEPTIDE1{[CCCCCCCCCCCCCCCC(=O)[*:2]].K.T.T.R.S}$$$$V2.0)	–	103	98	99	–	–	–	–	–	–	–	–	–	–
CCCCCCCCCCCCCCCC(=O)N[C@@H](CCCCN)C(=O)N[C@H](C(=O)N[C@H](C(=O)N[C@@H](CCCNC(=N)N)C(=O)N[C@@H](CO)C(N)=O)[C@@H](C)O)[C@@H](C)O [Peptide 16, Pal-Lys-Thr-Thr-Arg-Ser-NH2] (HELM PEPTIDE1{[CCCCCCCCCCCCCCCC(=O)[*:2]].K.T.T.R.S.[am]}$$$$V2.0)	–	104	114	115	–	–	–	–	–	–	–	–	2370 ± 120	–
CCCCCCCCCCCCCCCC(=O)N[C@@H](CCCNC(=N)N)C(=O)N[C@H](C(=O)N[C@H](C(=O)N[C@@H](CCCNC(=N)N)C(=O)N[C@@H](CO)C(N)=O)[C@@H](C)O)[C@@H](C)O [Peptide 24, Pal-Arg-Thr-Thr-Arg-Ser-NH2] (HELM PEPTIDE1{[CCCCCCCCCCCCCCCC(=O)[*:2]].R.T.T.R.S.[am]}$$$$V2.0)	260 ± 13	94	104	97	–	–	–	–	–	–	–	–	–	–
CCCCCCCCCCCCCCCC(=O)N[C@@H](CCCNC(=N)N)C(=O)N[C@H](C(=O)N[C@H](C(=O)N[C@@H](CCCCN)C(=O)N[C@@H](CO)C(N)=O)[C@@H](C)O)[C@@H](C)O [Peptide 32, Pal-Arg-Thr-Thr-Lys-Ser- NH2] (HELM PEPTIDE1{[CCCCCCCCCCCCCCCC(=O)[*:2]].R.T.T.K.S.[am]}$$$$V2.0)	–	104	113	118	–	–	–	–	–	–	–	–	–	–
H-KTTRS-OH [Peptide 9, H-Lys-Thr-Thr-Arg-Ser-OH]	–	93	103	101	630 ± 31	4010 ± 200	–	–	–	–	–	–	–	–
H-RTTRS-OH [Peptide 17, H-Arg-Thr-Thr-Arg-Ser-OH]	–	89	99	115	280 ± 14	3890 ± 190	–	–	–	–	–	–	–	288
